According to US20180099950A1, “APOPTOSIS SIGNAL-REGULATING KINASE INHIBITOR” (Gilead Sciences, Inc., priority 2012, published 2018):
Like-named read-outs stand apart in the source and are kept apart here.

How the values were obtained:
[1] = Determination of percent of compound bound to plasma (equilibrium dialysis); type: in vitro ADME; details: human
From the text: Sample vials were weighed and recorded.

[2] = Rat pharmacokinetics, 1 mg/kg IV infusion and 5.0 mg/kg PO; type: in vivo
Procedure: Pharmacokinetics of Test Compounds following a 1 mg/kg IV infusion and 5.0 mg/kg PO dose in rats
For IV administration the test compound was formulated in 60:40 PEG 400:water with 1 equivalent HCl at 0.5 mg/mL. […] For PO (oral) administration, the test compound was formulated in 5/75/10/10 ethanol/PG/solutol/water at 2.5 mg/mL.
IV and PO dosing groups each consisted of 3 male SD rats. […] The animals were fasted overnight prior to dose administration and up to 4 hr after dosing.
For the IV infusion group, the test compound was administered by intravenous infusion over 30 minutes. The rate of infusion was adjusted according to the body weight of each animal to deliver a dose of 1 mg/kg at 2 mL/kg. For the oral dosing group, the test article was administered by oral gavage at 2 mL/kg for a dose of 5.0 mg/kg.
Serial venous blood samples (approximately 0.4 mL each) were taken at specified time points after dosing from each animal. The blood samples were collected into Vacutainer™ tubes (Becton-Disckinson Corp, N.J., USA) containing EDTA as the anti-coagulant and were immediately placed on wet ice pending centrifugation for plasma.
An LC/MS/MS method was used to measure the concentration of test compound in plasma.
Non-compartmental pharmacokinetic analysis was performed on the plasma concentration-time data.

CYP3A4 = molecular target: T1, CYP3A4 (Homo sapiens, UniProt P08684); assay: Cytochrome P450 inhibition, CYP3A4 (midazolam and testosterone); type: in vitro ADME
T1 construct: from tissue; host or cells: human liver microsomes

[3] = pH 7.4, fraction unbound, comparative table, read-out: fu

T1 sequence (P08684 whole entry): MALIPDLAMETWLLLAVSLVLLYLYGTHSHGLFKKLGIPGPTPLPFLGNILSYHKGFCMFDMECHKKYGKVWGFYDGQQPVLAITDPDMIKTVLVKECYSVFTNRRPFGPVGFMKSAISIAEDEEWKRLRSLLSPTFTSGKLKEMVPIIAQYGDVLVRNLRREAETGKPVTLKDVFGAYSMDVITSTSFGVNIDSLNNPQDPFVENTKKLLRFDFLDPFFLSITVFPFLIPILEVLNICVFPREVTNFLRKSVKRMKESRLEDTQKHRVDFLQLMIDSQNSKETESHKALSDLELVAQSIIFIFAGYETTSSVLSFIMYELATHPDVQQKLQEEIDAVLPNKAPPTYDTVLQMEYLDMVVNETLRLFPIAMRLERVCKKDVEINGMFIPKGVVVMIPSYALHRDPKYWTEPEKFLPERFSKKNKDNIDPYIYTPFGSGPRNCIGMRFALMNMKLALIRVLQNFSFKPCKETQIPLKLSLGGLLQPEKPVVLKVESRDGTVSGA

Compound	fraction unbound at 3 h, 2 μM [1, 3]	number of times the compound of formula (I) shows an improvement over the indicated compound: % F in rats ([2]; rat, in vivo)	number of times the compound of formula (I) shows an improvement over the indicated compound: CL in rats ([2]; rat, in vivo)	number of times the compound of formula (I) shows an improvement over the indicated compound: Vss in rats ([2]; rat, in vivo)	number of times the compound of formula (I) shows an improvement over the indicated compound: t½ in rats ([2]; rat, in vivo)	t½ ([2]; rats) [h]	CYP3A4 IC50/PBAdj.EC50 value of compound of formula (I) higher than that of the named compound (CYP3A4) [times]	number of times the compound of formula (I) shows an improvement over the indicated compound: Cyp3A4 IC50 (TST) (CYP3A4)	clearance ([2]; male, SD, rat, plasma, intravenous, 1 mg/kg, rats) [mL/min/kg]	Vd ([2]; male, SD, rat, plasma, intravenous, 1 mg/kg, rats, read-out: Vss) [L/kg]	bioavailability ([2]; male, SD, rat, plasma, rats, 5.0 mg/kg PO, read-out: oral bioavailability (% F)) [%]	half-life ([2]; male, SD, rat, plasma, rats, read-out: t½ (converted)) [h]	IC50 (CYP3A4; testosterone substrate, comparative table, read-out: Cyp3A4 IC50 Testesterone (TST))) [µM]	fraction unbound at 3 h, 2 μM ([1]; pH 7.4, human plasma, 2 uM, 3 hours at 37 C, read-out: percent unbound)
CC(C)n1cnnc1-c1cccc(NC(=O)c2cccc(-n3cnc(C4CC4)c3)c2)n1 [Compound A]	0.048	(6.8X)	(2.7X)	(3.2X)	(8.6X)	0.59	43	(10X)						
Cc1ccc(C(=O)Nc2cccc(-c3nncn3C(C)C)n2)cc1-n1cnc(C2CC2)c1 [Compound B]	0.032	(1.5X)	(3.6X)		(3.9X)		92	(2.8X)	6.5	0.54	50	1.3	4	
Cc1cc(F)c(C(=O)Nc2cccc(-c3nncn3C(C)C)n2)cc1-n1cnc(C2CC2)c1 [compound of formula (I), 5-(4-cyclopropyl-1H-imidazol-1-yl)—N-(6-(4-isopropyl-4H-1,2,4-triazol-3-yl)pyridin-2-yl)-2-fluoro-4-methylbenzamide]	0.12													0.119
